Results published in the NIST ThermoML archive (doi:10.1021/acs.jced.5b01075).
Numbers after ± are expanded uncertainties.

Experiment: xn = mol fraction of the nth substance listed
Conditions: for viscosity: 100 kPa, Liquid, Concentric cylinders viscometry; for surface tension liquid-gas: 294.2 K, Pendant drop shape

**Q.** What does the source list for `C1CC[C@H]2CCCC[C@@H]2C1` [trans-decahydronaphthalene] + c1ccc2c(c1)CCCC2?
**A.** viscosity (293.15 K, x2 = 0.1044): 2.07 ± 0.02 mPa·s; viscosity (293.15 K, x2 = 0.2075): 2.03 ± 0.02 mPa·s; viscosity (293.15 K, x2 = 0.3094): 2.02 ± 0.02 mPa·s; viscosity (293.15 K, x2 = 0.4109): 2 ± 0.02 mPa·s; viscosity (293.15 K, x2 = 0.5112): 2.02 ± 0.02 mPa·s; viscosity (293.15 K, x2 = 0.6106): 2.04 ± 0.02 mPa·s; viscosity (293.15 K, x2 = 0.7093): 2.07 ± 0.02 mPa·s; viscosity (293.15 K, x2 = 0.807): 2.11 ± 0.03 mPa·s; viscosity (293.15 K, x2 = 0.9039): 2.17 ± 0.03 mPa·s; surface tension liquid-gas (x2 = 0.1044): 30.5 ± 0.4 mN/m; surface tension liquid-gas (x2 = 0.2075): 31 ± 0.4 mN/m; surface tension liquid-gas (x2 = 0.3094): 31.4 ± 0.4 mN/m; surface tension liquid-gas (x2 = 0.4109): 32.1 ± 0.4 mN/m; surface tension liquid-gas (x2 = 0.5112): 32.3 ± 0.4 mN/m; surface tension liquid-gas (x2 = 0.6106): 32.9 ± 0.4 mN/m; surface tension liquid-gas (x2 = 0.7093): 33.6 ± 0.4 mN/m; surface tension liquid-gas (x2 = 0.807): 34.1 ± 0.6 mN/m; surface tension liquid-gas (x2 = 0.9039): 35 ± 0.4 mN/m; viscosity (303.15 K, x2 = 0.1044): 1.74 ± 0.02 mPa·s; viscosity (303.15 K, x2 = 0.2075): 1.71 ± 0.02 mPa·s; viscosity (303.15 K, x2 = 0.3094): 1.7 ± 0.02 mPa·s; viscosity (303.15 K, x2 = 0.4109): 1.68 ± 0.02 mPa·s; viscosity (303.15 K, x2 = 0.5112): 1.69 ± 0.02 mPa·s; viscosity (303.15 K, x2 = 0.6106): 1.71 ± 0.02 mPa·s; viscosity (303.15 K, x2 = 0.7093): 1.73 ± 0.02 mPa·s; viscosity (303.15 K, x2 = 0.807): 1.75 ± 0.02 mPa·s; viscosity (303.15 K, x2 = 0.9039): 1.8 ± 0.02 mPa·s; viscosity (313.15 K, x2 = 0.1044): 1.48 ± 0.02 mPa·s; viscosity (313.15 K, x2 = 0.2075): 1.46 ± 0.02 mPa·s; viscosity (313.15 K, x2 = 0.3094): 1.44 ± 0.02 mPa·s; viscosity (313.15 K, x2 = 0.4109): 1.43 ± 0.02 mPa·s; viscosity (313.15 K, x2 = 0.5112): 1.44 ± 0.02 mPa·s; viscosity (313.15 K, x2 = 0.6106): 1.45 ± 0.02 mPa·s; viscosity (313.15 K, x2 = 0.7093): 1.46 ± 0.02 mPa·s; viscosity (313.15 K, x2 = 0.807): 1.48 ± 0.02 mPa·s; viscosity (313.15 K, x2 = 0.9039): 1.51 ± 0.02 mPa·s; viscosity (323.15 K, x2 = 0.1044): 1.27 ± 0.02 mPa·s; viscosity (323.15 K, x2 = 0.2075): 1.25 ± 0.02 mPa·s; viscosity (323.15 K, x2 = 0.3094): 1.24 ± 0.02 mPa·s; viscosity (323.15 K, x2 = 0.4109): 1.23 ± 0.02 mPa·s; viscosity (323.15 K, x2 = 0.5112): 1.24 ± 0.02 mPa·s; viscosity (323.15 K, x2 = 0.6106): 1.25 ± 0.02 mPa·s; viscosity (323.15 K, x2 = 0.7093): 1.26 ± 0.02 mPa·s; viscosity (323.15 K, x2 = 0.807): 1.27 ± 0.02 mPa·s; viscosity (323.15 K, x2 = 0.9039): 1.29 ± 0.02 mPa·s; viscosity (333.15 K, x2 = 0.1044): 1.1 ± 0.02 mPa·s; viscosity (333.15 K, x2 = 0.2075): 1.09 ± 0.02 mPa·s; viscosity (333.15 K, x2 = 0.3094): 1.08 ± 0.02 mPa·s; viscosity (333.15 K, x2 = 0.4109): 1.07 ± 0.02 mPa·s; viscosity (333.15 K, x2 = 0.5112): 1.08 ± 0.02 mPa·s; viscosity (333.15 K, x2 = 0.6106): 1.08 ± 0.02 mPa·s; viscosity (333.15 K, x2 = 0.7093): 1.09 ± 0.02 mPa·s; viscosity (333.15 K, x2 = 0.807): 1.1 ± 0.02 mPa·s; viscosity (333.15 K, x2 = 0.9039): 1.12 ± 0.02 mPa·s; viscosity (343.15 K, x2 = 0.1044): 0.968 ± 0.021 mPa·s; viscosity (343.15 K, x2 = 0.2075): 0.957 ± 0.021 mPa·s; viscosity (343.15 K, x2 = 0.3094): 0.95 ± 0.021 mPa·s; viscosity (343.15 K, x2 = 0.4109): 0.943 ± 0.021 mPa·s; viscosity (343.15 K, x2 = 0.5112): 0.947 ± 0.021 mPa·s; viscosity (343.15 K, x2 = 0.6106): 0.951 ± 0.021 mPa·s; viscosity (343.15 K, x2 = 0.7093): 0.958 ± 0.021 mPa·s; viscosity (343.15 K, x2 = 0.807): 0.968 ± 0.022 mPa·s; viscosity (343.15 K, x2 = 0.9039): 0.982 ± 0.022 mPa·s; viscosity (353.15 K, x2 = 0.1044): 0.856 ± 0.021 mPa·s; viscosity (353.15 K, x2 = 0.2075): 0.847 ± 0.021 mPa·s; viscosity (353.15 K, x2 = 0.3094): 0.842 ± 0.021 mPa·s; viscosity (353.15 K, x2 = 0.4109): 0.836 ± 0.021 mPa·s; viscosity (353.15 K, x2 = 0.5112): 0.84 ± 0.021 mPa·s; viscosity (353.15 K, x2 = 0.6106): 0.843 ± 0.021 mPa·s; viscosity (353.15 K, x2 = 0.7093): 0.849 ± 0.021 mPa·s; viscosity (353.15 K, x2 = 0.807): 0.858 ± 0.021 mPa·s; viscosity (353.15 K, x2 = 0.9039): 0.87 ± 0.021 mPa·s; viscosity (363.15 K, x2 = 0.1044): 0.765 ± 0.021 mPa·s; viscosity (363.15 K, x2 = 0.2075): 0.758 ± 0.021 mPa·s; viscosity (363.15 K, x2 = 0.3094): 0.753 ± 0.021 mPa·s; viscosity (363.15 K, x2 = 0.4109): 0.749 ± 0.021 mPa·s; viscosity (363.15 K, x2 = 0.5112): 0.752 ± 0.021 mPa·s; viscosity (363.15 K, x2 = 0.6106): 0.755 ± 0.021 mPa·s; viscosity (363.15 K, x2 = 0.7093): 0.76 ± 0.021 mPa·s; viscosity (363.15 K, x2 = 0.807): 0.768 ± 0.021 mPa·s; viscosity (363.15 K, x2 = 0.9039): 0.778 ± 0.021 mPa·s; viscosity (373.15 K, x2 = 0.1044): 0.689 ± 0.021 mPa·s; viscosity (373.15 K, x2 = 0.2075): 0.683 ± 0.021 mPa·s; viscosity (373.15 K, x2 = 0.3094): 0.68 ± 0.021 mPa·s; viscosity (373.15 K, x2 = 0.4109): 0.676 ± 0.021 mPa·s; viscosity (373.15 K, x2 = 0.5112): 0.679 ± 0.021 mPa·s; viscosity (373.15 K, x2 = 0.6106): 0.685 ± 0.021 mPa·s; viscosity (373.15 K, x2 = 0.7093): 0.687 ± 0.021 mPa·s; viscosity (373.15 K, x2 = 0.807): 0.694 ± 0.021 mPa·s; viscosity (373.15 K, x2 = 0.9039): 0.703 ± 0.021 mPa·s
